PubChem BioAssay (NCI)
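All cell lines were grown in 96-well plates and treated with compound for 48 hours. GI50 marks 50% less growth. TGI denotes the concentration required for complete inhibition of growth.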

Legend:
Experiment in all cases: NCI-60 cell line screen, 48 h
[1] = system: 786-0 renal
[2] = system: A498 renal
[3] = system: A549 NSCLC
[4] = system: ACHN renal
[5] = system: CAKI-1 renal
[6] = system: CCRF-CEM leukemia
[7] = system: COLO 205 colon
[8] = system: DU-145 prostate
[9] = system: EKVX NSCLC
[10] = system: HCC-2998 colon
[11] = system: HCT-116 colon
[12] = system: HCT-15 colon
[13] = system: HL-60(TB) leukemia
[14] = system: HOP-62 NSCLC
[15] = system: HOP-92 NSCLC
[16] = system: HS 578T breast
[17] = system: HT29 colon
[18] = system: IGROV1 ovarian
[19] = system: K-562 leukemia
[20] = system: KM12 colon
[21] = system: LOX IMVI melanoma
[22] = system: M14 melanoma
[23] = system: MALME-3M melanoma
[24] = system: MCF7 breast
[25] = system: MDA-MB-231 breast
[26] = system: MDA-MB-435
[27] = system: MOLT-4 leukemia
[28] = system: NCI-H226 lung
[29] = system: NCI-H23 lung

CC(C)(C)c1ccc([I+]c2ccc(C(C)(C)C)cc2)cc1
GI50 [1]: 1690 nM
TGI [1]: 3770 nM
GI50 [2]: 1370 nM
TGI [2]: 3810 nM
GI50 [3]: 2430 nM
TGI [3]: 6650 nM
GI50 [4]: 3250 nM
TGI [4]: 12200 nM
GI50 [5]: 8300 nM
TGI [5]: 20800 nM
GI50 [6]: 1170 nM
TGI [6]: 9140 nM
GI50 [7]: 1060 nM
TGI [7]: 2800 nM
GI50 [8]: 1700 nM
TGI [8]: 3530 nM
GI50 [9]: 1420 nM
TGI [9]: 5240 nM
GI50 [10]: 1780 nM
TGI [10]: 9090 nM
GI50 [11]: 1250 nM
TGI [11]: 4000 nM
GI50 [12]: 5080 nM
TGI [12]: 18200 nM
GI50 [13]: 550 nM
TGI [13]: 2460 nM
GI50 [14]: 1830 nM
TGI [14]: 3710 nM
GI50 [15]: 1250 nM
TGI [15]: 3500 nM
GI50 [16]: 1980 nM
TGI [16]: 7690 nM
GI50 [17]: 1340 nM
TGI [17]: 4780 nM
GI50 [18]: 2330 nM
TGI [18]: 12200 nM
GI50 [19]: 550 nM
TGI [19]: 2460 nM
GI50 [20]: 1040 nM
TGI [20]: 2830 nM
GI50 [21]: 1310 nM
TGI [21]: 2740 nM
GI50 [22]: 1470 nM
TGI [22]: 4090 nM
GI50 [23]: 545 nM
TGI [23]: 2010 nM
GI50 [24]: 1350 nM
TGI [24]: 9170 nM
GI50 [25]: 1350 nM
TGI [25]: 2830 nM
GI50 [26]: 948 nM
TGI [26]: 3010 nM
GI50 [27]: 1960 nM
TGI [27]: 7790 nM
GI50 [28]: 1290 nM
TGI [28]: 5320 nM
GI50 [29]: 1690 nM
